Reference: PMC4028107, “Adenosine deaminase activity modulation by some street drug: molecular docking simulation and experimental investigation” (DARU Journal of Pharmaceutical Sciences, 2014)

Experiments:
[1] = target: T1, Adenosine deaminase (EC 3.5.4.4) extracted from bovine spleen (Bos taurus, UniProt P56658); experiment: biochemical; assay type: biochemical; settings: for IC50: 2 mg/ml adenosine deaminase enzyme, 37°C, 30 min incubation, PBS pH 7.4, compounds 5–300 μM
T1 construct: Adenosine deaminase (EC 3.5.4.4) extracted from bovine spleen; purchased sigma; host or cells: bovine spleen (tissue extract)
T1 sequence (P56658 1-363): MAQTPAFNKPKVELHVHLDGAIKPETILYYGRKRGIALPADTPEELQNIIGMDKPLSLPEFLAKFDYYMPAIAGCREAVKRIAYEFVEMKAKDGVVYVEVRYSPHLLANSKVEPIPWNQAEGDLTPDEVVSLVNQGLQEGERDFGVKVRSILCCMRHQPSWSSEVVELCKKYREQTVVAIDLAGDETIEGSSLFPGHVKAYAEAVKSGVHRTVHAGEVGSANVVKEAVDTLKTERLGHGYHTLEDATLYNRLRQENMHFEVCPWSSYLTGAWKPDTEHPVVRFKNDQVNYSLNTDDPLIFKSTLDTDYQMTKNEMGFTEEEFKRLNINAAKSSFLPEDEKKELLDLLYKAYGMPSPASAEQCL
Procedure: Adenosine deaminase (EC 3.5.4.4) extracted from bovine spleen was purchased from sigma, and all other used materials were of analytical grade and acquired from Merck. PBS that is used in assay was adjusted at 7.4, at which, enzyme has optimal activity in [38, 39]. All solutions were prepared in MilliQ (Millipore, USA) water.
Released ammonia resulted by enzyme activity was determined by specific Berthelot colorimetric method which was used for micro determination of ADA activity in serum. […] In this process sodium nitroprusside is used as the catalyst. The reaction was initiated by addition of adenosine as a substrate at 37°C to preincubated enzyme with different concentrations of tested compounds at different concentrations (5–300 μM). Finally, the enzymatic reaction was stopped at the end of 30 minutes of incubation by adding phenol nitroprusside solution. The mixture kept again for 30 minutes at 37°C before absorbance determination.
Obtained absorbance was normalized through blank sample, and IC50 values were calculated by Prism software (Ver. 5, GraphPad Software Inc., San Diego CA,).

adenosine deaminase [2] = target: T2, adenosine deaminase (Bos taurus, UniProt P56658); experiment: Fluorescence spectroscopy of ADA (Trp emission); assay type: binding, bovine; settings: excitation 290 nm, emission 300-400 nm, pH 7.4, enzyme 6 μM, compounds 1.7 to 73.4 μM
T2 construct: Adenosine deaminase (EC 3.5.4.4) extracted from bovine spleen; purchased sigma; host or cells: bovine spleen (tissue extract)
T2 sequence (P56658 1-363): T1 sequence (P56658 1-363)
Procedure: Fluorescence spectroscopy was performed on a Hitachi fluorescence spectrophotometer model MPF-4 with 1 cm path length fluorescence cuvette and final volume of 400 μL. The excitation wavelength was adjusted in 290 nm, and the emission was scanned every 1 nm in the range of 300 to 400 nm.

adenosine deaminase [3] = target: T2, adenosine deaminase; experiment: Circular dichroism spectroscopy of ADA; parameters: species or system bovine; settings: far-UV 200–260 nm, pH 7.4; cocaine concentration around 180 μM
Procedure: CD spectra were measured in the far-UV (200–260 nm) region with JASCO J-715 spectropolarimeter (Japan). JASCO J-715 software not only gave us the possibility of data smoothing, but also used to predict the secondary structure changes of the protein according to the statistical method. Each scan was recorded in 1 nm increments at 37°C, repeated three times, and averaged. The protein was in 0.1 M PBS buffer, pH = 7.4, and its concentration was adjusted to 2 mg/ml in 1 cm path length cuvette. The results were expressed in molar ellipticity [θ] (deg cm^2.dmol^−1).

Row | SMILES | IC50 [1] [µM] | change in fluorescence spectra of ADA (adenosine deaminase [2]) | change in CD spectra of ADA (adenosine deaminase [3]) | concentration up to which ADA was activated [1] [µM]
1 | CCOc1ccc2c3c1O[C@H]1[C@@H](O)C=C[C@H]4[C@@H](C2)N(C)CC[C@@]341 [Ethylmorphine] | 35 | do not show noticeable change and shift | – | –
2 | COC(=O)[C@H]1[C@@H](OC(=O)c2ccccc2)C[C@@H]2CC[C@H]1N2C [Cocaine] | 180 | bathochromic shift | drastic changes | –
3 | COC1=CC=C2[C@H]3Cc4ccc(OC)c5c4[C@@]2(CCN3C)[C@H]1O5 [Thebaine] | 163 | do not show noticeable change and shift | – | 50
